Data on 32 molecules can be found in patent US11939331B2, “Tricyclic heterocycles as FGFR inhibitors” (Incyte Corporation, priority 2021, dated 2024).

By IC50 is commonly meant the concentration needed to halve the response being measured. A lower IC50 goes with higher potency.

The target in this test is wild-type un-phosphorylated FGFR3 protein (Homo sapiens, UniProt P22607). Kind of test: FGFR Enzymatic Assay (FRET peptide phosphorylation).
Chain of wild-type un-phosphorylated FGFR3 protein (P22607 23-806): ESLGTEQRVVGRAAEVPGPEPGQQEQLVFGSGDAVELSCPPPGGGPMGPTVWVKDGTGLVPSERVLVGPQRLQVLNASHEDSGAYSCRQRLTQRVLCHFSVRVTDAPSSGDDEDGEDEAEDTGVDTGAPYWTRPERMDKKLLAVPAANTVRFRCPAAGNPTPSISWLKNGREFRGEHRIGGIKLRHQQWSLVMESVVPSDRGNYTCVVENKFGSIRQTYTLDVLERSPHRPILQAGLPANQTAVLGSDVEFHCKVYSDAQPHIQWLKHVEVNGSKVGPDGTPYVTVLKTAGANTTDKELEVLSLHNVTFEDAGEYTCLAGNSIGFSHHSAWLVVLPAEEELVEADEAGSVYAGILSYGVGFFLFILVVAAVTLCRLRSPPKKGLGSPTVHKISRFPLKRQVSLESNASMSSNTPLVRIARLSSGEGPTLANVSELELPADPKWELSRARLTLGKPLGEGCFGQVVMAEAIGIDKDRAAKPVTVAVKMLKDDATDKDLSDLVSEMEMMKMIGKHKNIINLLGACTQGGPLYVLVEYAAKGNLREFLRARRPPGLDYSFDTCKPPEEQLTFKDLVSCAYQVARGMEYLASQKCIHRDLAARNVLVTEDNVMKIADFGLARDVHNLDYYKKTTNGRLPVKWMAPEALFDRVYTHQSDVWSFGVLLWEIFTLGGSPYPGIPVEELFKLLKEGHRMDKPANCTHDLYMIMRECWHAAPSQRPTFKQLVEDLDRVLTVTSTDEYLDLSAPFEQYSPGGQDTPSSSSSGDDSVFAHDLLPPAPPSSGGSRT
Protocol: The inhibitor potency of the exemplified compounds was determined in an enzyme discontinuous assay that measures peptide phosphorylation using FRET measurements to detect product formation. Inhibitors were serially diluted in DMSO and a volume of 0.2 μL was transferred to the wells of a 384-well plate. A 5 μL/well volume of enzyme isoforms of FGFR (-1, -2, -3 wild-type and mutant isoforms, -4) including phosphorylated and un-phosphorylated proteins diluted in assay buffer (50 mM HEPES, 10 mM MgCl2, 1 mM EGTA, 0.01% Tween-20, 5 mM DTT, pH 7.5) was added to the plate and pre-incubated with inhibitor for 5 to 15 minutes at ambient temperature. Appropriate controls (enzyme blank and enzyme with no inhibitor) were included on the plate. The reaction was initiated by the addition of a 5 μL/well volume containing both biotinylated [sequence] peptide substrate (SEQ ID NO: 1) and ATP in assay buffer. The 10 μL/well reaction concentration of the peptide substrate was 500 nM whereas the ATP concentration was maintained near or below the ATP Km. The ATP Km values were pre-determined in a separate series of experiments. The reaction plate was incubated at 25° C. for 1 hr and the reactions were ended with the addition of 5 μL/well of quench solution (50 mM Tris, 150 mM NaCl, 0.5 mg/mL BSA, pH 7.8; 45 mM EDTA, 600 nM staurosporin, with Perkin Elmer Lance Reagents at 3.75 nM Eu-antibody PY20 and 180 nM APC-Streptavidin). The plate was allowed to equilibrate for ˜10 minutes at ambient temperature before scanning on a PheraStar plate reader (BMG Labtech) instrument.
Either GraphPad prism or XLfit was used to analyze the data. The IC50 values were derived by fitting the data to a four parameter logistic equation producing a sigmoidal dose-response curve with a variable Hill coefficient. Prism equation: Y=Bottom+(Top−Bottom)/(1+10^((Log IC50−X)*Hill slope)); XLfit equation: Y=(A+((B−A)/(1+((X/C)^D)))) where X is the logarithm of inhibitor concentration and Y is the response.
The molecule `NC(=O)c1c(-c2c(Cl)cccc2Cl)nc2c3cc(-c4cnn(C5CCOC5)c4)cnc3ccn12` (centres unmarked) [Example 44, 2-(2,6-Dichlorophenyl)-9-(1-(tetrahydrofuran-3-yl)-1H-pyrazol-4-yl)imidazo[2,1-f][1,6]naphthyridine-3-carboxamide] came in with an IC50 of less than 0.1 nM.

The molecule `N#Cc1cncc(Cn2cc(-c3cnc4ccn5c(C(N)=O)c(-c6c(Cl)cccc6Cl)nc5c4c3)cn2)c1` [Example 9, 9-(1-((5-Cyanopyridin-3-yl)methyl)-1H-pyrazol-4-yl)-2-(2,6-dichlorophenyl)imidazo[2,1-f][1,6]naphthyridine-3-carboxamide] registered an IC50 of less than 0.1 nM.

As to `CNc1ncc(-c2cnc3ccn4c(C(N)=O)c(-c5c(Cl)cccc5Cl)nc4c3c2)cn1` [Example 43, 2-(2,6-Dichlorophenyl)-9-(2-(methylamino)pyrimidin-5-yl)imidazo[2,1-f][1,6]naphthyridine-3-carboxamide], the IC50 lay within 0.1 to 1 nM.

Consider `CN1CCN(CCn2cc(-c3cnc4ccn5c(C(N)=O)c(-c6c(Cl)cccc6Cl)nc5c4c3)cn2)CC1` [Example 46, 2-(2,6-Dichlorophenyl)-9-(1-(2-(4-methylpiperazin-1-yl)ethyl)-1H-pyrazol-4-yl)imidazo[2,1-f][1,6]naphthyridine-3-carboxamide], for which the half-inhibitory concentration (IC50) was 0.1 to 1 nM.

In the case of `NC(=O)c1c(-c2c(Cl)cccc2Cl)nc2c3cc(-c4ccc(CC(F)(F)F)nc4)cnc3ccn12` [Example 51, 2-(2,6-Dichlorophenyl)-9-(6-(2,2,2-trifluoroethyl)pyridin-3-yl)imidazo[2,1-f][1,6]naphthyridine-3-carboxamide], the IC50 fell in the range of 0.1 to 1 nM.

For the molecule `NC(=O)c1c(-c2c(Cl)cccc2Cl)nc2c3cc(-c4cnn(CC5(F)CCOCC5)c4)cnc3ccn12` [Example 8, 2-(2,6-Dichlorophenyl)-9-(1-((4-fluorotetrahydro-2H-pyran-4-yl)methyl)-1H-pyrazol-4-yl)imidazo[2,1-f][1,6]naphthyridine-3-carboxamide], the IC50 was less than 0.1 nM.

The molecule `NC(=O)c1c(-c2c(Cl)cccc2Cl)nc2c3cc(-c4cnn(CCCO)c4)cnc3ccn12` [Example 47, 2-(2,6-Dichlorophenyl)-9-(1-(3-hydroxypropyl)-1H-pyrazol-4-yl)imidazo[2,1-f][1,6]naphthyridine-3-carboxamide] registered an IC50 of less than 0.1 nM.

`CC(C)c1[nH]ncc1-c1cnc2ccn3c(C(N)=O)c(-c4c(Cl)cccc4Cl)nc3c2c1` [Example 40, 2-(2,6-Dichlorophenyl)-9-(5-isopropyl-1H-pyrazol-4-yl)imidazo[2,1-f][1,6]naphthyridine-3-carboxamide] had an IC50 of 1 to 10 nM.

The molecule `CC(C)(O)c1cnc2ccn3c(C(N)=O)c(-c4c(Cl)cccc4Cl)nc3c2c1` [Example 55, 2-(2,6-Dichlorophenyl)-9-(2-hydroxypropan-2-yl)imidazo[2,1-f][1,6]naphthyridine-3-carboxamide] registered an IC50 of 10 to 50 nM.

With `NC(=O)Cn1cc(-c2cnc3ccn4c(C(N)=O)c(-c5c(Cl)cccc5Cl)nc4c3c2)cn1` [Example 49, 9-(1-(2-Amino-2-oxoethyl)-1H-pyrazol-4-yl)-2-(2,6-dichlorophenyl)imidazo[2,1-f][1,6]naphthyridine-3-carboxamide], the half-maximal inhibitory concentration (IC50) was less than 0.1 nM.

On to `CCC(O)Cn1cc(-c2cnc3ccn4c(C(N)=O)c(-c5c(Cl)cccc5Cl)nc4c3c2)cn1` (centres unmarked) [Example 7, 2-(2,6-Dichlorophenyl)-9-(1-(2-hydroxybutyl)-1H-pyrazol-4-yl)imidazo[2,1-f][1,6]naphthyridine-3-carboxamide], for which the IC50 was in the range of 0.1 to 1 nM.

As to `NC(=O)c1c(-c2c(Cl)cccc2Cl)nc2c3cc(-c4ccc(=O)[nH]c4)cnc3ccn12` [Example 39, 2-(2,6-Dichlorophenyl)-9-(6-oxo-1,6-dihydropyridin-3-yl)imidazo[2,1-f][1,6]naphthyridine-3-carboxamide], the IC50 is 0.1 to 1 nM.

Turning to `CC(C)(C(N)=O)n1cc(-c2cnc3ccn4c(C(N)=O)c(-c5c(Cl)cccc5Cl)nc4c3c2)cn1` [Example 3, 9-(1-(1-Amino-2-methyl-1-oxopropan-2-yl)-1H-pyrazol-4-yl)-2-(2,6-dichlorophenyl)imidazo[2,1-f][1,6]naphthyridine-3-carboxamide], the IC50 lay within 0.1 to 1 nM.

In turn, `N#CCn1cc(-c2cnc3ccn4c(C(N)=O)c(-c5c(Cl)cccc5Cl)nc4c3c2)cn1` [Example 23, 9-(1-(Cyanomethyl)-1H-pyrazol-4-yl)-2-(2,6-dichlorophenyl)imidazo[2,1-f][1,6]naphthyridine-3-carboxamide] gave an IC50 of less than 0.1 nM.

`N#Cc1cccc(Cn2cc(-c3cnc4ccn5c(C(N)=O)c(-c6c(Cl)cccc6Cl)nc5c4c3)cn2)n1` [Example 16, 9-(1-((6-Cyanopyridin-2-yl)methyl)-1H-pyrazol-4-yl)-2-(2,6-dichlorophenyl)imidazo[2,1-f][1,6]naphthyridine-3-carboxamide] displayed an IC50 of less than 0.1 nM.

`NC(=O)c1c(-c2c(Cl)cccc2Cl)nc2c3cc(-c4cnn(C5CC5)c4)cnc3ccn12` [Example 32, 9-(1-Cyclopropyl-1H-pyrazol-4-yl)-2-(2,6-dichlorophenyl)imidazo[2,1-f][1,6]naphthyridine-3-carboxamide] came in with an IC50 of less than 0.1 nM.

Consider `NC(=O)c1c(-c2c(Cl)cccc2Cl)nc2c3cc(-c4ccc(C5CCS(=O)(=O)CC5)cc4)cnc3ccn12` [Example 13, 2-(2,6-Dichlorophenyl)-9-(4-(1,1-dioxidotetrahydro-2H-thiopyran-4-yl)phenyl)imidazo[2,1-f][1,6]naphthyridine-3-carboxamide], for which the IC50 fell in the range of 0.1 to 1 nM.

With `CC(CC#N)n1cc(-c2cnc3ccn4c(C(N)=O)c(-c5c(Cl)cccc5Cl)nc4c3c2)cn1` (centres unmarked) [Example 6, 9-(1-(1-Cyanopropan-2-yl)-1H-pyrazol-4-yl)-2-(2,6-dichlorophenyl)imidazo[2,1-f][1,6]naphthyridine-3-carboxamide], the IC50 is less than 0.1 nM.

The molecule `CNC(=O)c1ccc(-c2cnc3ccn4c(C(N)=O)c(-c5c(Cl)cccc5Cl)nc4c3c2)cn1` [Example 52, 2-(2,6-Dichlorophenyl)-9-(6-(methylcarbamoyl)pyridin-3-yl)imidazo[2,1-f][1,6]naphthyridine-3-carboxamide] had an IC50 of 0.1 to 1 nM.

Molecule `CC(O)Cn1cc(-c2cnc3ccn4c(C(N)=O)c(-c5c(Cl)cccc5Cl)nc4c3c2)cn1` (centres unmarked) [Example 36, 2-(2,6-Dichlorophenyl)-9-(1-(2-hydroxypropyl)-1H-pyrazol-4-yl)imidazo[2,1-f][1,6]naphthyridine-3-carboxamide] returned a half-maximal inhibitory concentration (IC50) of less than 0.1 nM.

For the molecule `NC(=O)c1c(-c2c(Cl)cccc2Cl)nc2c3cc(-c4cnn(CCO)c4)cnc3ccn12` [Example 1, 2-(2,6-Dichlorophenyl)-9-(1-(2-hydroxyethyl)-1H-pyrazol-4-yl)imidazo[2,1-f][1,6]naphthyridine-3-carboxamide], the IC50 is less than 0.1 nM.

Consider `CC(C)(CO)n1cc(-c2cnc3ccn4c(C(N)=O)c(-c5c(Cl)cccc5Cl)nc4c3c2)cn1` [Example 30, 2-(2,6-Dichlorophenyl)-9-(1-(1-hydroxy-2-methylpropan-2-yl)-1H-pyrazol-4-yl)imidazo[2,1-f][1,6]naphthyridine-3-carboxamide], for which the IC50 is less than 0.1 nM.

Turning to `N#Cc1cc(Cn2cc(-c3cnc4ccn5c(C(N)=O)c(-c6c(Cl)cccc6Cl)nc5c4c3)cn2)ccn1` [Example 10, 9-(1-((2-Cyanopyridin-4-yl)methyl)-1H-pyrazol-4-yl)-2-(2,6-dichlorophenyl)imidazo[2,1-f][1,6]naphthyridine-3-carboxamide], the IC50 is less than 0.1 nM.

In turn, `NC(=O)c1c(-c2c(Cl)cccc2Cl)nc2c3cc(-c4ccc(C(=O)N5CCOCC5)cc4)cnc3ccn12` [Example 4, 2-(2,6-Dichlorophenyl)-9-(4-(morpholine-4-carbonyl)phenyl)imidazo[2,1-f][1,6]naphthyridine-3-carboxamide] yielded an IC50 of less than 0.1 nM.

For the molecule `NC(=O)c1c(-c2c(Cl)cccc2Cl)nc2c3cc(C4=CCC(O)CC4)cnc3ccn12` (centres unmarked) [Example 53, 2-(2,6-Dichlorophenyl)-9-(4-hydroxycyclohex-1-en-1-yl)imidazo[2,1-f][1,6]naphthyridine-3-carboxamide], the IC50 is less than 0.1 nM.

`NC(=O)c1c(-c2c(Cl)cccc2Cl)nc2c3cc(-c4ccc(N5CCS(=O)(=O)CC5)cc4)cnc3ccn12` [Example 14, 2-(2,6-Dichlorophenyl)-9-(4-(1,1-dioxidothiomorpholino)phenyl)imidazo[2,1-f][1,6]naphthyridine-3-carboxamide]: the 50% inhibitory concentration (IC50) is less than 0.1 nM.

`NC(=O)c1c(-c2c(Cl)cccc2Cl)nc2c3cc(-c4cn[nH]c4)cnc3ccn12` [Example 5, 2-(2,6-Dichlorophenyl)-9-(1H-pyrazol-4-yl)imidazo[2,1-f][1,6]naphthyridine-3-carboxamide] registered an IC50 of less than 0.1 nM.

Regarding `NC(=O)c1c(-c2c(Cl)cccc2Cl)nc2c3cc(-c4cnn5c4CCC5)cnc3ccn12` [Example 41, 2-(2,6-Dichlorophenyl)-9-(5,6-dihydro-4H-pyrrolo[1,2-b]pyrazol-3-yl)imidazo[2,1-f][1,6]naphthyridine-3-carboxamide], the 50% inhibitory concentration (IC50) was 0.1 to 1 nM.

For `COCC(C)(C)n1cc(-c2cnc3ccn4c(C(N)=O)c(-c5c(Cl)cccc5Cl)nc4c3c2)cn1` [Example 35, 2-(2,6-Dichlorophenyl)-9-(1-(1-methoxy-2-methylpropan-2-yl)-1H-pyrazol-4-yl)imidazo[2,1-f][1,6]naphthyridine-3-carboxamide], the IC50 was less than 0.1 nM.

The molecule `NC(=O)c1c(-c2c(Cl)cccc2Cl)nc2c3cc(-c4cnn(CC(F)(F)F)c4)cnc3ccn12` [Example 33, 2-(2,6-Dichlorophenyl)-9-(1-(2,2,2-trifluoroethyl)-1H-pyrazol-4-yl)imidazo[2,1-f][1,6]naphthyridine-3-carboxamide] displayed a concentration for half-maximal inhibition (IC50) of less than 0.1 nM.

Consider `NC(=O)c1c(-c2c(Cl)cccc2Cl)nc2c3cc(-c4cnn(CCN5CCOCC5)c4)cnc3ccn12` [Example 45, 2-(2,6-Dichlorophenyl)-9-(1-(2-morpholinoethyl)-1H-pyrazol-4-yl)imidazo[2,1-f][1,6]naphthyridine-3-carboxamide], for which the IC50 fell in the range of 0.1 to 1 nM.

In the case of `N#CCCn1cc(-c2cnc3ccn4c(C(N)=O)c(-c5c(Cl)cccc5Cl)nc4c3c2)cn1` [Example 48, 9-(1-(2-Cyanoethyl)-1H-pyrazol-4-yl)-2-(2,6-dichlorophenyl)imidazo[2,1-f][1,6]naphthyridine-3-carboxamide], the IC50 was less than 0.1 nM.
